SMILES strings stand for the structures.

The target in assay [1] is Serine/threonine-protein kinase pim-2 (Homo sapiens) (UniProt Q9P1W9). As to the kind of experiment: Inhibition of human PIM2 using RSRHSSYPAGT as substrate at 1 uM in presence of 32P-ATP by Hotspot assay relative to control; values are per cent of control.
The target of assay [2] is T1, Protein kinase C zeta type (Homo sapiens) (UniProt Q05513).
T1 sequence (whole entry): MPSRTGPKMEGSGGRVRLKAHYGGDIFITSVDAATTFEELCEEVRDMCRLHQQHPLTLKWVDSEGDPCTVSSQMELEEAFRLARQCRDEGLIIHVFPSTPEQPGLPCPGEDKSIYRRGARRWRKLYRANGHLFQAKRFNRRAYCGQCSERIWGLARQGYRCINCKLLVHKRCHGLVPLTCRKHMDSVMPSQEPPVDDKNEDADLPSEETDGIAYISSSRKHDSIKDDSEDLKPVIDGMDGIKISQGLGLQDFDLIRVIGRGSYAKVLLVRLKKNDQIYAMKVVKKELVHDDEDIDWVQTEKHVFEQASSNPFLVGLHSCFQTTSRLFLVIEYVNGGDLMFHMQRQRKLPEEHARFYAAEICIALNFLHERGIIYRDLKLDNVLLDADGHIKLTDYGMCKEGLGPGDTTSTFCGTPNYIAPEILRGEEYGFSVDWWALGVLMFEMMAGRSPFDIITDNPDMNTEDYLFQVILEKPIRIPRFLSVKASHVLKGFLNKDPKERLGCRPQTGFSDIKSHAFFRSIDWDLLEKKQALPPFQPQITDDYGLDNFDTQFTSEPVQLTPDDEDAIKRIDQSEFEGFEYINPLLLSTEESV
As to the kind of experiment: Inhibition of human PKCzeta using ERMRPRKRQGSVRRRV as substrate at 1 uM in presence of 32P-ATP by Hotspot assay relative to control; values are per cent of control.

Assay [3] addresses RAC-gamma serine/threonine-protein kinase (Homo sapiens) (UniProt Q9Y243). In words: Inhibition of human AKT3 using KGSGSGRPRTSSFAEG as substrate at 1 uM in presence of 32P-ATP by Hotspot assay relative to control; values are per cent of control.
For assay [4], the target named is Activated CDC42 kinase 1 (Homo sapiens) (UniProt Q07912). As to the kind of experiment: Inhibition of human ACK1 using EAIYAAPFAKKK as substrate at 1 uM in presence of 32P-ATP by Hotspot assay relative to control; values are per cent of control.
In assay [5] the target is Mitogen-activated protein kinase 3 (Homo sapiens) (UniProt P27361). In words: Inhibition of human ERK1 using myelin basic protein as substrate at 1 uM in presence of 32P-ATP by Hotspot assay relative to control; values are per cent of control.
The target of assay [6] is CDK3/Cyclin E (Homo sapiens) (UniProt P24864+Q00526). In words: Inhibition of human CDK3/cyclin E using RB Protein as substrate at 1 uM in presence of 32P-ATP by Hotspot assay relative to control; values are per cent of control.
The target in assay [7] is Serine/threonine-protein kinase pim-1 (Homo sapiens) (UniProt P11309). In words: Inhibition of human PIM1 using RSRHSSYPAGT as substrate at 1 uM in presence of 32P-ATP by Hotspot assay relative to control; values are per cent of control.
Assay [8] addresses STE20-like serine/threonine-protein kinase (Homo sapiens) (UniProt Q9H2G2). As to the kind of experiment: Residual activity of human SLK/STK2 using histone H3 as substrate at 1 uM in presence of 32P-ATP by Hotspot assay relative to control.
Assay [9] deals with Serine/threonine-protein kinase 25 (Homo sapiens) (UniProt O00506). In words: Inhibition of human STK25/YSK1 using myelin basic protein as substrate at 1 uM in presence of 32P-ATP by Hotspot assay relative to control; values are per cent of control.
For assay [10], the target named is CDK1/Cyclin A (Homo sapiens) (UniProt P06493+P20248). In words: Inhibition of human CDK1/cyclin A using RB Protein as substrate at 1 uM in presence of 32P-ATP by Hotspot assay relative to control; values are per cent of control.
Assay [11] deals with T2, Muscle, skeletal receptor tyrosine-protein kinase (Homo sapiens) (UniProt O15146).
T2 sequence (whole entry): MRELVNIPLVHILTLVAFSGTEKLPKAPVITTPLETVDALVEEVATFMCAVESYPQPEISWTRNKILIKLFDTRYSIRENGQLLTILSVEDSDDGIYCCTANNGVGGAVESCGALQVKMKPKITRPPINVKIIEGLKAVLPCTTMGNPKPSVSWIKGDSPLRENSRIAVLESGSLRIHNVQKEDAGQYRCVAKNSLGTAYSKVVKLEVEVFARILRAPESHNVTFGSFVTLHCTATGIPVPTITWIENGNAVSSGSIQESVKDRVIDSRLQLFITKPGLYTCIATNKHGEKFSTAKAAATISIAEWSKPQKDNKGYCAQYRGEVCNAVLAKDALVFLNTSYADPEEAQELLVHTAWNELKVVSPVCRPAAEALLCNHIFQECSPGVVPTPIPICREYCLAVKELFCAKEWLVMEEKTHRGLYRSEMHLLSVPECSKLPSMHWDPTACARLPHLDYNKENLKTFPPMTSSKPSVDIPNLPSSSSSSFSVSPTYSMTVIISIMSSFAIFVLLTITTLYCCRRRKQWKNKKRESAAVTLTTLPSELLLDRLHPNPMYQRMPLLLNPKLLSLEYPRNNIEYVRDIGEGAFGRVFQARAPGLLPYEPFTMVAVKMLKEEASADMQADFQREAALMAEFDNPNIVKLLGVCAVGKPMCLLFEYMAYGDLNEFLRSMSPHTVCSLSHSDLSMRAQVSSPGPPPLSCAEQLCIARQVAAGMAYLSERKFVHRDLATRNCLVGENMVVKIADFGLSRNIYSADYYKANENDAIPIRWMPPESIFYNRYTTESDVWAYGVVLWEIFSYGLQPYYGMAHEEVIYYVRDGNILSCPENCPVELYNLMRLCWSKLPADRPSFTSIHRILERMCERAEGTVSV
As to the kind of experiment: Inhibition of human MUSK using myelin basic protein as substrate at 1 uM in presence of 32P-ATP by Hotspot assay relative to control; values are per cent of control.

A further assay relates to HT-29. As to the kind of experiment: Inhibition of TNF-alpha induced necroptosis in human HT-29 cells assessed as increase in cell viability incubated for 24 hrs in presence of zVAD and SMAC007 by Cell Titer-Glo luminescent cell viability assay. The note with it: dose 0.01-3 µM. Format: functional, cell-based. A general note: Cellular ATP, detected with luciferase, serves as a proxy for viable cell number.

CDK3/Cyclin E (Homo sapiens), sequence (P24864 whole entry, looked up): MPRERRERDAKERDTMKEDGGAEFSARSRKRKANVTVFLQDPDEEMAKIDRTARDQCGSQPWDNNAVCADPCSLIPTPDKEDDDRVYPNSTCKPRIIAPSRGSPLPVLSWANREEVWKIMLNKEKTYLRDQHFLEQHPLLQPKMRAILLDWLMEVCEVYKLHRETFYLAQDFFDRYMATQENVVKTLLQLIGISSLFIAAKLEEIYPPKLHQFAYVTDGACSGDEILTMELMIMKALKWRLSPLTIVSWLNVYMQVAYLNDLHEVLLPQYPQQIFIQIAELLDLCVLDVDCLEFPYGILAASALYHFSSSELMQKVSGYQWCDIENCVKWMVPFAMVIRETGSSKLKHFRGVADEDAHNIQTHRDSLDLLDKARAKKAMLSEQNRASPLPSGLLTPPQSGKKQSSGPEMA
CDK3/Cyclin E (Homo sapiens), sequence (Q00526 whole entry, looked up): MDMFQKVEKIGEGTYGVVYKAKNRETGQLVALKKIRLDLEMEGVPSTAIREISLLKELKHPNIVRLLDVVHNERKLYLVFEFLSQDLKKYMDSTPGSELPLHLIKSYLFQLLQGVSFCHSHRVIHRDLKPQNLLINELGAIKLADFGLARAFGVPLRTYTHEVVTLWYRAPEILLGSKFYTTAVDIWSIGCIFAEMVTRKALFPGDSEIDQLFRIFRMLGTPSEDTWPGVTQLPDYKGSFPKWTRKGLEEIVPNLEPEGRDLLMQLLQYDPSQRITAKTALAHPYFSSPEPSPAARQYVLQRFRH
Serine/threonine-protein kinase 25 (Homo sapiens), sequence (O00506 whole entry, looked up): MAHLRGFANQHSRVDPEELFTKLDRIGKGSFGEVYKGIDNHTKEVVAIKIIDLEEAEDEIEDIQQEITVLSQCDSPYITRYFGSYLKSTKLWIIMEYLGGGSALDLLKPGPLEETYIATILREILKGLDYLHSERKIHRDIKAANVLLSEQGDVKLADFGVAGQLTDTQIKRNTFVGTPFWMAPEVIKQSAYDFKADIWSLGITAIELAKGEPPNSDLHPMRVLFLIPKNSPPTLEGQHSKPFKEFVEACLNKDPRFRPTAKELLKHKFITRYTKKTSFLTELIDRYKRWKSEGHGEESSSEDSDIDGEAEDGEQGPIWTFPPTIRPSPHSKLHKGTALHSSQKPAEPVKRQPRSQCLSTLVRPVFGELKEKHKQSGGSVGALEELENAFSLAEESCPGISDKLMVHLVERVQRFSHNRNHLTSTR
CDK1/Cyclin A (Homo sapiens), sequence (P06493 whole entry, looked up): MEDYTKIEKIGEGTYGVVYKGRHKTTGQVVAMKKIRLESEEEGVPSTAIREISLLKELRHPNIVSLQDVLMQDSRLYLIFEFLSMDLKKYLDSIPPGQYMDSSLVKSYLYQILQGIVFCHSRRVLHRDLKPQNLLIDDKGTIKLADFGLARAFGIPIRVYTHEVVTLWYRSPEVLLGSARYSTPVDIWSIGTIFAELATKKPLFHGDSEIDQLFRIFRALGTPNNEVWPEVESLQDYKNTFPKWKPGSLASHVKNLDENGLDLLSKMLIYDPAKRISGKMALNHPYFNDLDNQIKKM
CDK1/Cyclin A (Homo sapiens), sequence (P20248 whole entry, looked up): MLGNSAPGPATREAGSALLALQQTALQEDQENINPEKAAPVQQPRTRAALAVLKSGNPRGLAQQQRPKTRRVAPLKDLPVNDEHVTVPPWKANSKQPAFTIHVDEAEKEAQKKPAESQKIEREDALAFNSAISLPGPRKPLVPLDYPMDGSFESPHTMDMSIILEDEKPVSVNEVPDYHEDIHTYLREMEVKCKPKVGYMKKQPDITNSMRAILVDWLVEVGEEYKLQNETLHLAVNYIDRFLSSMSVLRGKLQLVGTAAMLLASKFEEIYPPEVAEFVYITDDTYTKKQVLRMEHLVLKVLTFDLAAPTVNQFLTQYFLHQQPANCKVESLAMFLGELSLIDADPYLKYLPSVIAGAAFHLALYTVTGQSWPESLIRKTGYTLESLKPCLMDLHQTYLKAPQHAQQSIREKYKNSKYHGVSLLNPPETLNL
Mitogen-activated protein kinase 3 (Homo sapiens), sequence (P27361 whole entry): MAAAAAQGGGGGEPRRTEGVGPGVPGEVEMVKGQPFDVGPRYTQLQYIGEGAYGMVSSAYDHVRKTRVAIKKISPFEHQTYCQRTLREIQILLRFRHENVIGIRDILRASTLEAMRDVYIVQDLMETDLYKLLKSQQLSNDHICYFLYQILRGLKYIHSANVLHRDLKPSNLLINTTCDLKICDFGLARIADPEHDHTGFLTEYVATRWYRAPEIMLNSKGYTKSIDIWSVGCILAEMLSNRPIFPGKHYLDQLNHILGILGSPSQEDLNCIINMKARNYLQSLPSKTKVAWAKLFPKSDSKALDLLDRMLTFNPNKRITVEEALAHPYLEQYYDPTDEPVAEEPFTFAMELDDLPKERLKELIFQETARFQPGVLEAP
Serine/threonine-protein kinase pim-2 (Homo sapiens), sequence (Q9P1W9 whole entry, looked up): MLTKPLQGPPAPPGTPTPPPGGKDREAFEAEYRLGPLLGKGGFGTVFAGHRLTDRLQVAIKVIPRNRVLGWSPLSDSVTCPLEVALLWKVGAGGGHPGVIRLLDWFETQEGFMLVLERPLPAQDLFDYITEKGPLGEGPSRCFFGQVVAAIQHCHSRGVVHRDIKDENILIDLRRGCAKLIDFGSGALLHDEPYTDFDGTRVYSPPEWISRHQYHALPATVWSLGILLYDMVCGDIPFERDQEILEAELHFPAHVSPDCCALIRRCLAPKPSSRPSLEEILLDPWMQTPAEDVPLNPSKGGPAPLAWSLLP
RAC-gamma serine/threonine-protein kinase (Homo sapiens), sequence (Q9Y243 whole entry): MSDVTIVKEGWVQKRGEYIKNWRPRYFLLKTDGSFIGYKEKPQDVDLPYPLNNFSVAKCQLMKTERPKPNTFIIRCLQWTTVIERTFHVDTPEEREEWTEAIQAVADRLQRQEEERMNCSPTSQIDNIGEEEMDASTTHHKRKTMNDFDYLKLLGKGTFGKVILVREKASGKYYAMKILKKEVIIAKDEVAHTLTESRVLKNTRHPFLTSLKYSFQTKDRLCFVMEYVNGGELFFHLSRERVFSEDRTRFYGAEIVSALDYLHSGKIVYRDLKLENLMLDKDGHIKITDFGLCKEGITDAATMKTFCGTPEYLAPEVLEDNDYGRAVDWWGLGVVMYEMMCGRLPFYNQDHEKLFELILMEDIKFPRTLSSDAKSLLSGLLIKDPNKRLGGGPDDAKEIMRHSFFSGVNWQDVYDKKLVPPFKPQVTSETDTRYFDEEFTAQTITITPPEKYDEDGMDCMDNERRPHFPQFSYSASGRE
STE20-like serine/threonine-protein kinase (Homo sapiens), sequence (Q9H2G2 whole entry, looked up): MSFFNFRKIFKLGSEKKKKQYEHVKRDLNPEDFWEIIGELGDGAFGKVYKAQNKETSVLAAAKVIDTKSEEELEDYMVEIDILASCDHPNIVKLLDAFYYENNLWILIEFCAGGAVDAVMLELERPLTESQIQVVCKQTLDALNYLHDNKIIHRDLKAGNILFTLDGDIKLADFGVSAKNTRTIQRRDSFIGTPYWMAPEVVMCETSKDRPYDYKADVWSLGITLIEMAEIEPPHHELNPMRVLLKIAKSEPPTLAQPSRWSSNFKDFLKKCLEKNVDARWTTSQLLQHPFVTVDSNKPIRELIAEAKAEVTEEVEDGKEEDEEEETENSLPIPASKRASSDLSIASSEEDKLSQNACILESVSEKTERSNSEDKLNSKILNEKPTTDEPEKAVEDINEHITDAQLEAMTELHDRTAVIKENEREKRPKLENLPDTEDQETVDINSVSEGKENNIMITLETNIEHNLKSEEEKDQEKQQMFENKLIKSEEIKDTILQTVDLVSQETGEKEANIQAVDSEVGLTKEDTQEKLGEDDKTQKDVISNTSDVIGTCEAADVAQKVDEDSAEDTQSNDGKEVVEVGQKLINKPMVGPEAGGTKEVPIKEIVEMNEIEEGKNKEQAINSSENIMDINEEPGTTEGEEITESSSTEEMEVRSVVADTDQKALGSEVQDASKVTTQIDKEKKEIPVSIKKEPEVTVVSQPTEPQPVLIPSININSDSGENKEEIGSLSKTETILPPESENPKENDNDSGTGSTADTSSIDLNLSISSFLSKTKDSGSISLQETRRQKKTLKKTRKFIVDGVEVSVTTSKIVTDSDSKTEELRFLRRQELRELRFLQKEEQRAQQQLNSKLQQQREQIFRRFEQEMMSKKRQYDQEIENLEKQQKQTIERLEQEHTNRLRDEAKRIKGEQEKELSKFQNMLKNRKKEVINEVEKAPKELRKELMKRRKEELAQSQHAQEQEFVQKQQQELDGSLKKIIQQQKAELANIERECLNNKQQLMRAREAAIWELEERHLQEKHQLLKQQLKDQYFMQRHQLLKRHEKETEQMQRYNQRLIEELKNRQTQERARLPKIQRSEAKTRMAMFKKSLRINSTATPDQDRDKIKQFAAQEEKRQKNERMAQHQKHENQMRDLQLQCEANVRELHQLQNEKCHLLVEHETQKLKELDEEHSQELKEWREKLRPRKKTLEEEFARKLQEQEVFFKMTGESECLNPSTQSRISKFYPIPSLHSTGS
Serine/threonine-protein kinase pim-1 (Homo sapiens), sequence (P11309 whole entry, looked up): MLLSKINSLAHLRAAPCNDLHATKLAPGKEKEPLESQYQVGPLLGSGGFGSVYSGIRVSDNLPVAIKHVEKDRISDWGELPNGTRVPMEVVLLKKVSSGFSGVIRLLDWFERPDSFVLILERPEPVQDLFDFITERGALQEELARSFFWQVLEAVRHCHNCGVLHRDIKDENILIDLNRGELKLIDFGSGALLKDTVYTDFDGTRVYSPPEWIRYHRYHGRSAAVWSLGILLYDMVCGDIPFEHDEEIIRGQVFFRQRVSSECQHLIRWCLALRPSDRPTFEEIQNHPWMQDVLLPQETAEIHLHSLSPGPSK

As to `Cc1cc(-c2cnc(N)c3c(-c4ccc5scnc5c4)csc23)n(C)n1`, the residual activity in assay [1] was determined as 93.7%; in assay [2] it was 101%; in assay [3] it was 96.1%; in assay [4], 5.38%; in assay [5], 93.3%; in assay [6], 87.6%. Further, the residual activity in [7] turned out to be 98.4%; in assay [8] it was 94.6%; in assay [9] it was 106%; in [10], 98.9%; in assay [11], 105%. For the same compound, the inhibition entry in the assay on HT-29 is “Dose-Dependent Effect”.

`CC(C)S(=O)(=O)c1ccc2nccc(Nc3ccc4scnc4c3)c2c1`: the residual activity in [1] turned out to be 94.9%; in [2] it was 96.3%; in [3], 94.3%; in assay [4] it was 47.8%; in [5], 89.9%; in assay [6] it was 88.5%. Moreover, the residual activity in assay [7] turned out to be 96.4%; in [8], 87.8%; in assay [9], 98.8%; in assay [10] it was 88.6%; in assay [11], 98.1%. The inhibition entry in the assay with HT-29 was “Dose-Dependent Effect”.

With `CNC(=O)c1ccc2c(c1)ncn2-c1ccc(CC(=O)OC(C)(C)C)cc1`, the residual activity in [1] came out at 90.8%; in assay [2], 96.4%; in [3], 98.4%; in [4], 93.4%; in assay [5], 94.7%; in assay [6] it was 92.4%. The residual activity was found to be 98.5% in assay [7]; 92.1% in [8]; 104% in assay [9]; 94.5% in assay [10]; 103% in assay [11]. Moreover, in the assay with HT-29, the inhibition result was “Dose-Dependent Effect”.
